pIC50: −log10 of the molar value. Like-named read-outs stand apart in the source and are kept apart here.
Tests used:
[1] = Microsomal stability assay, human liver microsomes; format: in vitro ADME; conditions: for microsomal CLint at 1 μM: pH 7.4, 1 μM compound, 0.5 mg/mL protein, 37° C., read-out: HLM +/− NADPH: Clint (μL/min/mg protein); for half-life at 1 μM: pH 7.4, read-out: Liver microsome T½ (min) Human
How it was run: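 Compound at 1 μM was incubated at 37° C with 0.5 mg/mL liver microsomes and 1 mM NADPH and/or 1 mM UDPGA (with alamethicin) in 100 mM potassium phosphate pH 7.4, 3 mM MgCl2. Samples were taken at 0, 15, 30 and 60 min and measured by LC/MS/MS. t½ came from compound loss relative to 0 min, and Clint was scaled with 45 mg microsomal protein/g liver.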

androgen receptor (AR) = target: T1, androgen receptor (AR) (Homo sapiens, UniProt P10275, T878A); test: Androgen-induced PSA (6.1 kb)-luciferase reporter assay in LNCaP cells; format: cell-based; conditions: LNCaP cells transfected with PSA (6.1 kb)-luciferase reporter, R1881 1 nM, 24 h
T1 construct: LNCaP cells were transiently transfected with the PSA (6.1 kb)-luciferase reporter for 24 h; endogenous in cells; host or cells: LNCaP
T1 sequence (P10275 1-920 T878A): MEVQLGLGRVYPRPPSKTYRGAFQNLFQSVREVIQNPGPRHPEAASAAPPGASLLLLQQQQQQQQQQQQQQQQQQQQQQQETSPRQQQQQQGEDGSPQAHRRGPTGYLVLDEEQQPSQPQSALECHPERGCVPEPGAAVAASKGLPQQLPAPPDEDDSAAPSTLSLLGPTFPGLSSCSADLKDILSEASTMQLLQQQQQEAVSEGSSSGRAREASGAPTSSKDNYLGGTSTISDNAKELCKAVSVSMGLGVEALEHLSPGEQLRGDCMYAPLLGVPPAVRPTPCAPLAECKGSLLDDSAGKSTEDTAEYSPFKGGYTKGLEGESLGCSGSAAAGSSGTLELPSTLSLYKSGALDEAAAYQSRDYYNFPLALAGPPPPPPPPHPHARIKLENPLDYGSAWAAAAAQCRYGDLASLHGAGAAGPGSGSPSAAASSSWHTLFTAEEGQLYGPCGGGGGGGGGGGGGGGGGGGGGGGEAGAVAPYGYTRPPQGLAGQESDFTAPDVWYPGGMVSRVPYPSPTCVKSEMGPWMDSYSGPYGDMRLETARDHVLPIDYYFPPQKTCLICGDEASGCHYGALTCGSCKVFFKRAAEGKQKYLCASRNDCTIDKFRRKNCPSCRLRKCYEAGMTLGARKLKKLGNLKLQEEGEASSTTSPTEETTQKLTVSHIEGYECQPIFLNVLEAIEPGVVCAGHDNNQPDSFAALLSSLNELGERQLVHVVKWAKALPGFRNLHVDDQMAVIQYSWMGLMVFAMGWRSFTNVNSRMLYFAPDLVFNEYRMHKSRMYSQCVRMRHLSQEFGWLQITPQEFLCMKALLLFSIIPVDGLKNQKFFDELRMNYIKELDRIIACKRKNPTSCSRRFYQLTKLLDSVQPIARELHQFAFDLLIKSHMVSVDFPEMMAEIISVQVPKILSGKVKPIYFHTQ
How it was run: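 Read-out is firefly luminescence (10 s) in LNCaP lysates, normalized to protein, from an ARE-containing PSA (6.1 kb)-luciferase reporter driven by androgen.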

[2] = Microsomal stability assay, dog liver microsomes; format: in vitro ADME; conditions: pH 7.4, read-out: Liver microsome T½ (min) Dog
Description: Microsomal stability assay is a widely used in vitro model to characterize the metabolic conversion by phase I enzymes, such as cytochrome P450 (CYP) enzymes. Since metabolism is known to be highly variable in different species, microsomal stability assay is commonly run in multiple species. Metabolic stability of testing compound can be evaluated using human, rat, mouse, or other animal liver or intestine microsomes to predict intrinsic clearance.
The assay was carried out in 96-well microtiter plates at 37° C. Reaction mixtures (25 μL) contained a final concentration of 1 μM test compound, 0.5 mg/mL liver microsomes protein, and 1 mM NADPH and/or 1 mM UDPGA (with alamethicin) in 100 mM potassium phosphate, pH 7.4 buffer with 3 mM MgCl2. The incubation was done with N=1, but duplicate incubation at each time point can be prepared if necessary. At each of the time points (for example, 0, 15, 30, and 60 minutes), 150 μL of quench solution (100% acetonitrile with 0.1% formic acid) with internal standard was transferred to each well. Besides the zero minute controls, mixtures containing the same components except the NADPH can also be prepared as the negative control. Verapamil was included as a positive control to verify assay performance. Plates were sealed, vortexed, and centrifuged at 4° C. for 15 minutes at 4000 rpm. The supernatant is transferred to fresh plates for LC/MS/MS analysis.
Summarized conditions: [Compound]=[…], [LM]=0.5 mg/mL, [NADPH]=1 mM and/or [UDPGA]=1 mM, Buffer=100 mM Potassium Phosphate, pH 7.4 with 3 mM MgCl2, Time=0, 15, 30, and 60 min, and Temperature=37° C.
All samples were analyzed on LC/MS/MS using an AB Sciex API 4000 instrument, coupled to a Shimadzu LC-20AD LC Pump system. Analytical samples were separated using a Waters Atlantis T3 dC18 reverse phase HPLC column (20 mm×2.1 mm) at a flow rate of 0.5 mL/min. The mobile phase consisted of 0.1% formic acid in water (solvent A) and 0.1% formic acid in 100% acetonitrile (solvent B).
The extent of metabolism is calculated as the disappearance of the test compound, compared to the 0-min time incubation. Initial rates are calculated for the compound concentration and used to determine half-life (t½) values and subsequently, the intrinsic clearance (Clint). Clint=(0.693)(1/t½ (min))(g of liver/kg of body weight)(mL incubation/mg of microsomal protein)(45 mg of microsomal protein/g of liver weight)

microsomal CLint at 1 μM [1] [µL/min/mg]	pIC50 (androgen receptor (AR); read-out: PSA-Luc IC50 Range)	half-life at 1 μM [1] [min]	pIC50 (androgen receptor (AR); read-out: PSA-Luc IC50)	half-life at 1 μM [2] [min]	Structure (SMILES)
< 12	5.70 to 6.30				CCS(=O)(=O)Nc1nccc(COc2ccc(C(C)(C)c3cc(Cl)c(OCCCl)c(C#N)c3)cc2)n1 [Compound A131]
< 12	5.70 to 6.30				C[C@H](Oc1ccc(C(C)(C)c2cc(Cl)c(OCCCl)c(C#N)c2)cc1)c1ccnc(NS(C)(=O)=O)n1 (single isomer, unassigned) [Compound A170]
< 12	> 6.30	> 120	6.69	> 120	CC(C)(c1ccc(OCc2ncc(S(C)(=O)=O)s2)cc1)c1cc(Cl)c(OCCCl)c(C#N)c1 [Compound A93, 3-chloro-2-(2-chloroethoxy)-5-(2-(4-((5-(methylsulfonyl)thiazol-2-yl)methoxy)phenyl)propan-2-yl)benzonitrile]
< 12	> 6.30				Cc1cnc(NS(C)(=O)=O)nc1COc1ccc(C(C)(C)c2cc(Cl)c(OCCCl)c(C#N)c2)cc1 [Compound A122, N-(4-((4-(2-(3-Chloro-4-(2-chloroethoxy)-5-cyanophenyl)propan-2-yl)phenoxy)methyl)-5-methylpyrimidin-2-yl)methanesulfonamide]
< 12	5.70 to 6.30	> 120	6.23	> 120	CC(C)(c1ccc(OCc2ocnc2S(C)(=O)=O)cc1)c1cc(Cl)c(OCCCl)c(Cl)c1 [Compound A13, 5-((4-(2-(3,5-dichloro-4-(2-chloroethoxy)phenyl)propan-2-yl)phenoxy)methyl)-4-(methylsulfonyl)oxazole]
< 12	5.70 to 6.30	> 120	6.27	> 120	CC(C)(c1ccc(OCc2ccnc(NS(C)(=O)=O)n2)cc1)c1cc(Cl)c(OCCCl)c(C#N)c1 [Compound A109, N-(4-((4-(2-(3-chloro-4-(2-chloroethoxy)-5-cyanophenyl)propan-2-yl)phenoxy)methyl)pyrimidin-2-yl)methanesulfonamide]
		> 120	5.98		CC(C)(c1ccc(OC[C@H](O)CNS(C)(=O)=O)cc1)c1cc(Cl)c(OC[C@H](O)CCl)c(Cl)c1 [X, reference compound]
12 to 48	5.70 to 6.30				CC(C)(c1ccc(OCc2nc(S(C)(=O)=O)cs2)cc1)c1cc(Cl)c(OCCCl)c(C#N)c1 [Compound A136, 3-Chloro-2-(2-chloroethoxy)-5-(2-(4-((4-(methylsulfonyl)thiazol-2-yl)methoxy)phenyl)propan-2-yl)benzonitrile]
< 12	5.70 to 6.30	> 120	6.18	> 120	CC(C)(c1ccc(OCc2ccnc(NS(C)(=O)=O)n2)cc1)c1cc(Cl)c(OCCCl)c(Cl)c1 [Compound A74, N-(4-((4-(2-(3,5-dichloro-4-(2-chloroethoxy)phenyl)propan-2-yl)phenoxy)methyl)pyrimidin-2-yl)methanesulfonamide]
< 12	> 6.30	> 120	6.40	> 120	CC(C)(c1ccc(OCc2ocnc2S(C)(=O)=O)cc1)c1cc(Cl)c(OCCCl)c(C#N)c1 [Compound A28, 3-chloro-2-(2-chloroethoxy)-5-(2-(4-((4-(methylsulfonyl)oxazol-5-yl)methoxy)phenyl)propan-2-yl)benzonitrile]
< 12	5.70 to 6.30				CCS(=O)(=O)Nc1nc(COc2ccc(C(C)(C)c3cc(Cl)c(OCCCl)c(C#N)c3)cc2)co1 [Compound A126]
< 12	5.70 to 6.30	> 120	6.20	> 120	CC(C)(c1ccc(OCc2coc(NS(C)(=O)=O)n2)cc1)c1cc(Cl)c(OCCCl)c(Cl)c1 [Compound A38, N-(4-((4-(2-(3,5-dichloro-4-(2-chloroethoxy)phenyl)propan-2-yl)phenoxy)methyl)oxazol-2-yl)methanesulfonamide]

From patent US11059795B2, “Androgen receptor modulators and methods for their use” (ESSA Pharma, Inc., priority 2018, dated 2021)
